Results on 27 compounds are retold here after patent US20040002080A1, “Primers for use in detecting beta-lactamases” (priority 2001, published 2004).

One assay deals with K. pneumoniae strain 249. In words: Overnight microdilution susceptibility test (MicroScan panels, NCCLS criteria). The class given is cell-based. The following applies: Klebsiella pneumoniae, K. pneumoniae 249, combinations as drug/clavulanate, read-out: Minimum Inhibitory Concentrations (MICs). How it is done: Susceptibility tests were performed on K. pneumoniae 249 by an overnight microdilution method with investigational dehydrated panels provided by Dade Behring MicroScan (Sacramento, Calif.) according to the manufacturer's recommendations and interpreted according to National Committee for Clinical Laboratory Standards (NCCLS) criteria and by NCCLS disc diffusion (National Committee for Clinical Laboratory Standards (NCCLS), “Methods for Dilution Antimicrobial Susceptibility Tests for Bacteria that Grow Aerobically: Approved Standard M7-A4,” Villanova, Pa. (1997); and Hanson et al., J. Antimicrob. Chemother., 44(3):377-380 (September 1999)). The test was performed using an innoculum of approximately 5×10^5 colony forming units per square milliliter (cfu/mL^2). Isoelectric focusing (IEF), cefotaxime hydrolysis and inhibitor determinations in polyacrylamide gels were performed using sonic extracts of K. pneumoniae 249 (Thomson et al., Antimicrob. Agents Chemother., 35:1001-1003 (1991)).

In assay [1] the test system is S. enterica serotype typhimurium isolate. In words: Antibiotic susceptibility testing (microdilution MIC, VITEK, NCCLS disk diffusion). Format: cell-based, Salmonella enterica serotype Typhimurium.
The target in assay [2] is T1, beta-lactamase band of isoelectric point 9.1 (AmpC enzyme) of K. pneumoniae 249 (Klebsiella pneumoniae, UniProt Q48434).
T1 construct: performed using sonic extracts of K. pneumoniae 249; endogenous in cells; host or cells: Klebsiella pneumoniae strain 249 (clinical urine isolate), sonic extract
In words: Isoelectric focusing, cefotaxime hydrolysis and inhibitor determinations in polyacrylamide gels, sonic extracts. The following applies: sonic extracts of K. pneumoniae 249, polyacrylamide gel; for inhibition of the band of isoelectric point 9.1: inhibitor 1000 mM. The class given is biochemical. On the procedure: The test was performed using an innoculum of approximately 5×10^5 colony forming units per square milliliter (cfu/mL^2).
The cefoxitin, ceftriaxone/clavulanate and ceftazidime/clavulanate MICs indicated two possible mechanisms of resistance, the expression of a plasmid-mediated ampC gene and/or a porin mutation. […] Three beta-lactamases were identified with isoelectric points of 5.4, 7.6, and 9.1. The band that focused at isoelectric point 9.1 hydrolyzed cefotaxime and was inhibited by cloxacillin (1000 mM), but not clavulanate (1000 mM). These findings indicated it was an AmpC enzyme.

Assay [3] concerns beta-lactamase pI>9.0 (AmpC). In words: Isoelectric focusing with general inhibitor characteristics, crude beta-lactamase preparations. The class given is biochemical, Salmonella enterica serotype Typhimurium. The following applies: crude preparation. How it is done: (§1) Crude beta-lactamase preparations derived from sonicated bacterial cultures of the S. typhimurium isolate and strains producing reference beta-lactamases were assessed for beta-lactamase pls and general inhibitor characteristics by isoelectric focusing (Thomson et al., Antimicrob. Agents Chemother., 35(5):1001-1003 (May 1991).

The test system of assay [4] is beta-lactamase pI 8.2 (SHV-9). Described as above. The following applies: crude preparation. Format: biochemical, Salmonella enterica serotype Typhimurium. How it is done: as §1
In assay [5] the target is T2, beta-lactamase pI 7.4 (OXA-1 or OXA-30) (Escherichia coli, UniProt P13661).
T2 construct: Crude beta-lactamase preparations derived from sonicated bacterial cultures of the S. typhimurium isolate; endogenous in cells; host or cells: Salmonella enterica serotype Typhimurium clinical stool isolate, sonicated culture
The class given is biochemical, Salmonella enterica serotype Typhimurium. The following applies: isoelectric focusing, crude preparation.

Assay [6] concerns S. enterica serotype typhimurium isolate. The assay can be described thus: Phenotypic inhibitor-based ESBL tests (double disk potentiation with clavulanate). The class given is cell-based, Salmonella enterica serotype Typhimurium. The following applies: for potentiation by clavulanate (ESBL tests positive): with clavulanate. An excerpt: Susceptibility testing and β-lactamase investigations. Antibiotic susceptibilities and resistance phenotypes were investigated by microdilution MIC methodology, double disk potentiation, VITEK (card GNS-424, bioMérieux, Inc. St. Louis, Mo.), NCCLS disk diffusion, and the three dimensional test (Thomson et al., Antimicrob. Agents Chemother., 35(5):1001-1003 (May 1991); and Thomson et al., Antimicrob. Agents Chemother., 36(9):1877-1882 (September 1992)).

≈ marks a conversion by molar mass, not a printed value. Where two headings read alike, the source gives them in different places. A value given as a limit tells only on which side of the number the result lay.

T1 sequence (Q48434 21-381): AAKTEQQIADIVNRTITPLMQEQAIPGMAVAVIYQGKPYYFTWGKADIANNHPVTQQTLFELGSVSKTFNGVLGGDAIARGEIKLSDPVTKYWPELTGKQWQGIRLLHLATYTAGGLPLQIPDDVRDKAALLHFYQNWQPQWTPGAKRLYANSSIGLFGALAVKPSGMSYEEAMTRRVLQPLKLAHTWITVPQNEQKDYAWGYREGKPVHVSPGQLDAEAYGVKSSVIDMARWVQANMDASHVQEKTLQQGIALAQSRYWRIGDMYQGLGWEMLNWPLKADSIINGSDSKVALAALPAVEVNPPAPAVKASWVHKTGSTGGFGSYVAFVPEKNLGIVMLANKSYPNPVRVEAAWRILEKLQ
T2 sequence (P13661 26-276): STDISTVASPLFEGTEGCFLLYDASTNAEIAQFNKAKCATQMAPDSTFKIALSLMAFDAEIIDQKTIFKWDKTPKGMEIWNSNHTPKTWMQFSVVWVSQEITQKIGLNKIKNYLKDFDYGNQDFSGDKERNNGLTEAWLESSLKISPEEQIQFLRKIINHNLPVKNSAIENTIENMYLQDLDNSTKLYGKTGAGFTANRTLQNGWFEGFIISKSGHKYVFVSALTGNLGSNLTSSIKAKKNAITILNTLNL

In the case of `CCN1CCN(C(=O)N[C@@H](C(=O)N[C@@H]2C(=O)N3[C@@H]2SC(C)(C)[C@@H]3C(=O)O)c2ccccc2)C(=O)C1=O` [piperacillin], the MIC in the assay on K. pneumoniae strain 249 is above 64 µg/mL.
Consider `COCC1=C(C(=O)O)N2C(=O)[C@@H](NC(=O)/C(=N\OC)c3csc(N)n3)[C@H]2SC1` [cefpodoxime], for which the MIC with K. pneumoniae strain 249 was above 4 µg/mL.
The compound `C=CC1=C(C(=O)O)N2C(=O)[C@@H](NC(=O)/C(=N\OCC(=O)O)c3csc(N)n3)[C@H]2SC1` [Cefixime] returned an MIC in assay [1] (Table 2) above 128 µg/mL.
As for `CO/N=C(\C(=O)N[C@@H]1C(=O)N2C(C(=O)O)=C(CSc3nc(=O)c(=O)[nH]n3C)CS[C@H]12)c1csc(N)n1` [Ceftriaxone], the MIC is 16 µg/mL with K. pneumoniae strain 249 and above 128 µg/mL in assay [1] (Table 2).
Regarding `C[C@@H](O)[C@H]1C(=O)N2C(C(=O)O)=C(S[C@@H]3CN[C@H](C(=O)N(C)C)C3)[C@H](C)[C@H]12` [Meropenem], the MIC is at most 0.5 µg/mL in the assay with K. pneumoniae strain 249 and “less than 2” in assay [1] (Table 2). Further, the “susceptibility category (susceptible / intermediate / resistant)” value in assay [1] was “susceptible”.
Gentamicin yielded an MIC in assay [1] (Table 2) above 16 µg/mL.
As to `C[C@@H](O)[C@H]1C(=O)N2C(C(=O)O)=C([C@H]3CCCO3)S[C@H]12` [Faropenem], the MIC in assay [1] (Salmonella enterica, read-out: MIC) was found to be 2 µg/mL (≈ 7.01 µM); in assay [1] (Table 2), 2 µg/mL (≈ 7.01 µM).
With `CC(C)(O/N=C(\C(=O)N[C@@H]1C(=O)N2C(C(=O)[O-])=C(C[n+]3ccccc3)CS[C@H]12)c1csc(N)n1)C(=O)O` [Ceftazidime], the MIC was 16 µg/mL in the assay with K. pneumoniae strain 249 and above 32 µg/mL in assay [1] (Table 2). Also, the “susceptibility category (susceptible / intermediate / resistant)” value in assay [1] is recorded as “resistance”.
Regarding `NC[C@H]1O[C@H](O[C@H]2[C@H](O)[C@@H](O[C@H]3O[C@H](CO)[C@@H](O)[C@H](N)[C@H]3O)[C@H](N)C[C@@H]2N)[C@H](N)C[C@@H]1O` [Tobramycin], the MIC in assay [1] (Table 2) is above 16 µg/mL.
For `O=C(N[C@H](CO)[C@H](O)c1ccc([N+](=O)[O-])cc1)C(Cl)Cl` [Chloramphenicol], in assay [1], the “susceptibility category (susceptible / intermediate / resistant)” value is listed as “resistant”. Moreover, the MIC in assay [1] (Table 2) is above 256 µg/mL.
For the compound `O=C(O)c1cn(C2CC2)c2cc(N3CCNCC3)c(F)cc2c1=O` [Ciprofloxacin], the “susceptibility category (susceptible / intermediate / resistant)” value in assay [1] was “susceptible”.
As to `NCC[C@H](O)C(=O)N[C@@H]1C[C@H](N)[C@@H](O[C@H]2O[C@H](CN)[C@@H](O)[C@H](O)[C@H]2O)[C@H](O)[C@H]1O[C@H]1O[C@H](CO)[C@@H](O)[C@H](N)[C@H]1O` [Amikacin], the MIC in assay [1] (Table 2) was above 64 µg/mL.
As to `CO/N=C(\C(=O)N[C@@H]1C(=O)N2C(C(=O)O)=C(COC(N)=O)CS[C@H]12)c1ccco1` [Cefuroxime], in assay [1] (Table 2), the MIC is above 256 µg/mL.
With `O=C(O)[C@H]1/C(=C/CO)O[C@@H]2CC(=O)N21` [clavulanate], the “inhibition of the band of isoelectric point 9.1” value in assay [2] is given as “not”. The “inhibition of beta-lactamase pI>9.0” value in assay [3] was “not”. Moreover, the “inhibition of beta-lactamase pI 8.2” value in assay [4] is reported as “inhibited”. The “inhibition of beta-lactamase pI 7.4” value in assay [5] is reported as “inhibited”.
On to Cotrimoxazole, for which the “susceptibility category (susceptible / intermediate / resistant)” value in assay [1] is reported as “resistant”. This compound registered an MIC in assay [1] (Table 2) above 320 µg/mL.
`CO/N=C(\C(=O)N[C@@H]1C(=O)N2C(C(=O)O)=C(COC(C)=O)CS[C@H]12)c1csc(N)n1` [cefotaxime]: the “cefotaxime hydrolysis by the band of isoelectric point 9.1” value in assay [2] is recorded as “hydrolyzed”. In assay [1], the “susceptibility category (susceptible / intermediate / resistant)” value is recorded as “resistance”.
In the case of `CC(=O)OCC1=C(C(=O)O)N2C(=O)[C@@H](NC(=O)Cc3cccs3)[C@H]2SC1` [Cephalothin], the MIC with K. pneumoniae strain 249 is above 16 µg/mL; in assay [1] (Table 2), above 32 µg/mL.
As for `Cc1onc(-c2ccccc2Cl)c1C(=O)N[C@@H]1C(=O)N2[C@@H]1SC(C)(C)[C@@H]2C(=O)O` [cloxacillin], the “inhibition of the band of isoelectric point 9.1” value in assay [2] is given as “inhibited”. Moreover, the “inhibition of beta-lactamase pI>9.0” value in assay [3] is given as “inhibited”. Also, in assay [5], the “inhibition of beta-lactamase pI 7.4” value is “not”.
`CC=CC1=C(C(=O)O)N2C(=O)[C@@H](NC(=O)[C@H](N)c3ccc(O)cc3)[C@H]2SC1` [Cefprozil] returned an MIC in assay [1] (Table 2) above 128 µg/mL.
As to `CO/N=C(\C(=O)N[C@@H]1C(=O)N2C(C(=O)[O-])=C(C[n+]3cccc4c3CCC4)CS[C@H]12)c1csc(N)n1` [cefpirome], the “potentiation by clavulanate (ESBL tests positive)” value (from here on “potentiation by clavulanate”) in assay [6] is “potentiation”.
`C[C@@H](O)[C@H]1C(=O)N2C(C(=O)O)=C(SCCN=CN)C[C@H]12` [Imipenem] registered an MIC in assay [1] (Table 2) of 0.25 µg/mL (≈ 0.835 µM).
Turning to `CC1(C)S[C@@H]2[C@H](NC(=O)[C@H](N)c3ccccc3)C(=O)N2[C@H]1C(=O)O` [Ampicillin], the MIC in the assay with K. pneumoniae strain 249 is above 16 µg/mL; in assay [1] (Table 2) it was above 256 µg/mL.
The compound `C[C@H]1COc2c(N3CCN(C)CC3)c(F)cc3c(=O)c(C(=O)O)cn1c23` [Levofloxacin] gave an MIC in assay [1] (Table 2) of 0.5 µg/mL (≈ 1.38 µM).
Take `C[C@H]1[C@H](NC(=O)/C(=N\OC(C)(C)C(=O)O)c2csc(N)n2)C(=O)N1S(=O)(=O)O` [aztreonam]: in assay [6] (addition of clavulanate), the “reversal of resistance by the addition of clavulanate” value is recorded as “partially reversible”. Further, the “potentiation by clavulanate” value in assay [6] is listed as “potentiation”. In assay [1], the “susceptibility category (susceptible / intermediate / resistant)” value is “resistance”.
Turning to `CC1(C)S[C@@H]2[C@H](NC(=O)[C@H](C(=O)O)c3ccsc3)C(=O)N2[C@H]1C(=O)O` [ticarcillin], the MIC in the assay with K. pneumoniae strain 249 is above 64 µg/mL.
`CO[C@@]1(NC(=O)Cc2cccs2)C(=O)N2C(C(=O)O)=C(COC(N)=O)CS[C@@H]21` [cefoxitin]: the MIC with K. pneumoniae strain 249 was above 32 µg/mL. Moreover, in assay [1], the “susceptibility category (susceptible / intermediate / resistant)” value is listed as “resistance”.
In the case of `CO/N=C(\C(=O)N[C@@H]1C(=O)N2C(C(=O)[O-])=C(C[N+]3(C)CCCC3)CS[C@H]12)c1csc(N)n1` [cefepime], in assay [6], the “potentiation by clavulanate” value is recorded as “potentiation”. The MIC in the assay on K. pneumoniae strain 249 is at most 4 µg/mL. Moreover, in assay [1], the “susceptibility category (susceptible / intermediate / resistant)” value is reported as “intermediate”.
